Reference: patent US9095564B2, “von Willebrand factor or factor VIII and von Willebrand factor for the treatment of coagulopathy induced by inhibitors of thrombocytes” (CSL Behring GmbH, priority 2008, dated 2015)

Assays:
[1] = test system: thrombin generation in platelet rich plasma; test: Thrombin generation/thrombogram in platelet rich plasma, rat clopidogrel model; assay type: in vivo; details: clopidogrel treatment, or single agent given to clopidogrel treated rats
Description: When Haemate® P was administered to clopigogrel treated rats an earlier onset of thrombin formation was observed but no increase of peak thrombin.

clopidogrel treated rats = test: Tail tip bleeding (total blood loss) in the rat clopidogrel model; assay type: in vivo
Description: The study was designed as an open seven-armed trial with 115 rats (+60 platelet donors).
3.2 mL blood were mixed with 0.8 mL trisodium citrate. Blood samples were pooled and centrifuged at 900 RPM for 30 minutes. Platelet-rich-plasma was collected into a fresh tube and centrifugated at 1800-2000 RPM for 15-17 minutes. The pellet was gently resuspended in Tyrode HEPES+0.3% BSA. Depending on platelet yield animals received 1.6−3×10^9 washed platelets intravenous into the tail vein.
Tablets were dissolved in isotonic saline and administered by gavage. On day 2 freshly prepared rat platelets were transfused into the tail vein by a bolus. Haemate® P was administered directly prior to platelet transfusion. 15 minutes after administration of platelets, blood loss was determined. The volume of total blood loss was calculated by measuring the HGB present in the saline used for submersion of the tail tip. The tail tip cut was performed with a scalpel knife under deep anesthesia, removing about 3 mm of the tail tip. Immediately upon lesion, the tail tip was submerged in saline, kept at the physiological body temperature of the rats using a water bath. The observation period to monitor bleeding was 30 min.
Blood loss was determined as the total blood loss (t=0-30 min) and analyzed by two-sided exact Wilcoxon test, box plot and Kaplan-Meier plot.

[2] = Group 1: Plavix/Isotonic saline, t=0-30 min

COC(=O)[C@H](c1ccccc1Cl)N1CCc2sccc2C1 [Plavix, clopidogrel]
onset of thrombin formation [1]: later onset | peak thrombin [1]: decrease in peak thrombin | Total blood loss, Maximum (clopidogrel treated rats; [2]): 2345 µL | Total blood loss, Mean (clopidogrel treated rats; [2]): 1404.2 µL | Total blood loss, Median (clopidogrel treated rats; [2]): 1466 µL | Total blood loss, Minimum (clopidogrel treated rats; [2]): 265 µL | total blood loss (result in words) (clopidogrel treated rats; oral treatment with clopidogrel 2.5 mg/kg day 0 and day 1): increased total blood loss
